Results on two compounds are retold here after patent publication US10357485B1, “Anti-cancer compound” (KING SAUD UNIVERSITY, priority 2018, dated 2019).

Like-named read-outs stand apart in the source and are kept apart here.

Format in all cases: cell-based, human
Experiment [1] deals with JURKAT cells. Briefly: MTT cytotoxicity assay on JURKAT cells. As to conditions: for IC50: Homo sapiens, JURKAT cells. As for the experimental part:
As described in detail herein, a cytotoxicity assay of compound 4 was performed on four human cancer cell lines—JURKAT, NCI-H460, HCT116 and MCF7—with camptothecin (CPT) as a positive control. The inhibitory effects of compound 4 on JURKAT, NCI-H460, HCT116 and MCF7 cancer cells were determined by an MTT (3-[4,5-dimethylthiazol-2-yl]-2,5 diphenyltetrazolium bromide) assay. The cancer cells were exposed to compound 4 at various concentrations of 1, 5, 10, 15, and 20 μM for different incubation periods of 24 h and 48 h. […] The stock solutions of 1 mM compound 4 and camptothecin (40 μM) were prepared, respectively, in DMSO. Further dilutions of 1, 5, 10, 15, and 20 μM were made in Dulbecco's Modified Eagle's Medium (DMEM) for treatment of cancer cells. MCF-7 (human breast cancer); HCT116 (human colon cancer); NCI-H460 (human non-small lung cancer); and JURKAT (human T-cell lymphoma) cell lines were obtained from the National Centre for Cell Science (NCCS, Pune, India). All cells were cultured in DMEM—except JURKAT cells, which were cultured in RPMI media—and supplemented with 10% fetal bovine serum (HiMedia, India) with penicillin (100 I.U/mL) and streptomycin (100 μg/mL) at 37° C. in a humidified atmosphere of 5% CO2 in air. Cultured cells of 75-85% confluency were used for the assays. Adherent cells were trypsinized, counted and seeded in 96-well plates for viability studies. Cells were allowed to adhere overnight before treatment in the experiments. JURKAT cells were washed with D-PBS, counted and seeded in 96-well plates for viability studies. Cytotoxicity of compound 4 for JURKAT cells was determined by 3-(4,5-dimethylthiazol-2-yl)-2,5-diphenyltetrazolium bromide (MTT) assay. In brief, cells were seeded with different concentrations of compound 4—specifically 1, 5, 10, 15, and 20 μM—in 96 wells plate at a density of 20000 cells per well and incubated for 24 h and 48 h at 37° C., in a CO2 incubator. The MTT assay was performed according to manufacturer instructions and absorbance of the treated and untreated cells were measured in a microplate reader at 570 nm wavelength. Results were represented as percentage of viability={[A570 (treated cells)−background]/[A570 (untreated cells)−background]}×100. Each treatment was performed in triplicate (N=3).
(Tetrazolium dyes change colour on reduction, which living cells bring about.)

Experiment [2] relates to JURKAT cells. In words: FITC Annexin V/PI apoptosis assay by flow cytometry. As to conditions: 48 h of treatment, compound 4 at 10.33 μM. As to the method: To determine whether the antiproliferative effect of compound 4 can trigger cell apoptosis, the percentage of JURKAT cells undergoing apoptosis was determined by flow cytometric analysis after the cells were stained with FITC Annexin V and proidium iodide (PI). […] As depicted in FIGS. 6A-6G, after 48 h of treatment with compound 4, a significant accumulation of AnnexinV^+ was observed, relative to CTP treated cells. 45.21% and 12.54% of cells were determined to be in early apoptosis (AnnexinV^+) when treated with compound 4 and CTP, respectively. Similarly, 46.32% and 14.33% of cells were determined to be in late apoptosis (AnnexinV^+, PI^+) when treated with compound 4 and CTP, respectively. Apoptosis assay was performed using FITC Annexin V Apoptosis Detection Kit I (BD Biosciences, San Jose, Calif., USA). The fluorescence intensities of FITC-conjugated Annexin V and PI in compound 4 treated, control treated and untreated cells were analyzed using flow cytometry. Briefly, JURKAT cells (1×10^6 cells/well) were seeded in a 6-well plate. […] Following trypsinization, cells were centrifuged at 1000×g for 10 min, and the pellet was gently resuspended in 100 μL FITC Annexin V binding buffer and then incubated with 5 μL of FITC Annexin V in the dark for 10 min at 25° C. The cells were then centrifuged at 2000 rpm for 5 min, gently resuspended in 500 μL of FITC Annexin V binding buffer and 5 μL of PI was added in an ice bath, followed by flow cytometry (BD FACS Calibur, San Jose, Calif., USA) the apoptotic cells were analyzed using Cell Quest software.

The test system of experiment [3] is NCI-H460 cells. In words: MTT cytotoxicity assay on NCI-H460 cells. As to conditions: NCI-H460, 1-20 μM, 24 and 48 hours. As to the method:
(§1) As described in detail herein, a cytotoxicity assay of compound 4 was performed on four human cancer cell lines—JURKAT, NCI-H460, HCT116 and MCF7—with camptothecin (CPT) as a positive control. The inhibitory effects of compound 4 on JURKAT, NCI-H460, HCT116 and MCF7 cancer cells were determined by an MTT (3-[4,5-dimethylthiazol-2-yl]-2,5 diphenyltetrazolium bromide) assay. The cancer cells were exposed to compound 4 at various concentrations of 1, 5, 10, 15, and 20 μM for different incubation periods of 24 h and 48 h. […] The stock solutions of 1 mM compound 4 and camptothecin (40 μM) were prepared, respectively, in DMSO. Further dilutions of 1, 5, 10, 15, and 20 μM were made in Dulbecco's Modified Eagle's Medium (DMEM) for treatment of cancer cells. […] Adherent cells were trypsinized, counted and seeded in 96-well plates for viability studies. […] JURKAT cells were washed with D-PBS, counted and seeded in 96-well plates for viability studies. Cytotoxicity of compound 4 for JURKAT cells was determined by 3-(4,5-dimethylthiazol-2-yl)-2,5-diphenyltetrazolium bromide (MTT) assay. […] The MTT assay was performed according to manufacturer instructions and absorbance of the treated and untreated cells were measured in a microplate reader at 570 nm wavelength. […]

Experiment [4] concerns HCT116 cells. Briefly: MTT cytotoxicity assay on HCT116 cells. As to conditions: HCT116, 1-20 μM, 24 and 48 hours. As for the experimental part: as §1
The subject of experiment [5] is MCF7 cells. Briefly: MTT cytotoxicity assay on MCF7 cells. As to conditions: MCF7, 1-20 μM, 24 and 48 hours. As for the experimental part:
as §1

The test system of experiment [6] is JURKAT cells. In words: DNA fragmentation by TUNEL assay. As to conditions: 48 h, 10.33 μM. An excerpt:
DNA fragmentation is a key feature of apoptosis, and is largely due to activation of endogenous endonucleases that induce cleavage of chromatin DNA into internucleosomal fragments of roughly 180 base pairs. Apoptosis can be qualitatively assessed by monitoring DNA fragmentation trends, for instance, using terminal deoxynucleotidyl transferase dUTP nick end labeling (TUNEL) assay. For untreated […] cells, TUNEL assay results indicated a constant base line of TUNEL-positive cells. […] DNA fragmentation was monitored in treated, control treated and untreated JURKAT cells to identify stages of apoptosis. […] Supernatant and adherent cells were collected in a centrifuge tube and then washed twice with PBS. The cells were fixed with 70% ice-cold ethanol by incubating at -20° C. for 30 min. The fixed cells were resuspended in wash buffer, and then washed twice by centrifugation. 50 μl of DNA labeling solution was added to each cell pellet. The cell pellets were incubated with the DNA labeling solution at 37° C. for 60 min. The cell pellets were rinsed with rinse buffer and then resuspended with 0.5 ml of PI/RNase Staining Buffer and incubated for 30 min at RT. Flow cytometry was performed to detect DNA fragmentation (BD FACS Calibur, San Jose, Calif., USA).

For experiment [7], the system named is JURKAT cells. In words: Cell cycle analysis, propidium iodide staining, flow cytometry. As to conditions: 48 h, 10.33 μM. As to the method: Therefore, interruption of cell cycle progression is an important target for cancer treatment. JURKAT cells were treated with compound 4 for 48 h and stained with propidium iodide to determine the proportion of cells undergoing apoptosis or cell death as analyzed by flow cytometry. […] The percentage of compound 4-treated cells decreased in G0/G1 and G2/M phase. […] Checkpoints are the pathways that halt progression of the cell cycle in response to cellular stress. Targeting checkpoint pathways are potential anti-cancer strategies because abrogation of checkpoint function drives tumor cells toward apoptosis and enhances the efficacy of oncotherapy. The cell cycle phase evaluation was performed as described by […] et al. (2007). Jurkat cells were plated at 1×10^6 cells/well in a six-well plate for 12 h and then cells were exposed with compound-4 in serum-free media and incubated for an additional 48 h. […] Following trypsinization, cells were centrifuged at 1000×g for 10 min, and the pellet was resuspended in PBS. Fixation was completed by adding 70% cold ethanol for at least 2 h. The fixed cells were centrifuged at 1000 g for 10 min, and the pellet suspended in PBS. After 60 s, the cells were centrifuged as before, and the pellet resuspended in 1 ml of propidium iodide (PI) staining solution. Immediately after 15 min incubation at 37° C., the cells were analyzed to determine the cell cycle stage using flow cytometry (BD FACS Calibur, San Jose, Calif., USA) with an excitation wavelength of 488 nm and an emission at 670 nm using the Cell Quest software for analysis. The data presented represent at least three independent experiments conducted in triplicate (N=3).
For orientation: Flow cytometry measures light scatter and fluorescence of single cells or particles in a stream.

For experiment [8], the system named is JURKAT cells. Briefly: Mitochondrial membrane potential (ΔΨm) assay, JC-1 staining. As to conditions: 48 h, 10.33 μM. As to the method: Mitochondrial membrane depolarization is an early event in apoptosis. Chemotherapeutic agents usually induce apoptosis via the mitochondrial pathway. Evaluation of the effect of compound 4 treatment on mitochondrial membrane depolarization was determined using flow cytometry after staining with mitochondrial potential-sensitive dye JC-1. […] Mitochondrial membrane potential (ΔΨm) was determined using JC-1, a fluorescent carbocyanine dye (Smiley et al., 1991). Briefly, JURKAT cells (1×10^6 cells/well) were seeded in a 6-well plate. […] Each of the cell pellets were incubated with 2.5 μM JC-1 for 15 min at 37° C. in darkness. Subsequently, stained cells were washed with PBS, followed by FACS analysis (BD FACS Calibur, San Jose, Calif., USA).

Experiment [9] deals with Caspase-3 in JURKAT cells. Briefly: Caspase-3 expression assay, FITC staining, flow cytometry. As to conditions: 48 h, 10.33 μM, CPT 40 μM. As to the method: Caspase-3 expression was measured using FITC staining. […] Apoptotic caspases are believed to be activated in a protease cascade in which the activated apical caspases responding to apoptotic stimuli directly activate the executioner (effector) caspases in a precisely controlled process. Among these effector caspases, caspase-3, a member of the cysteine protease family, plays a central role in the execution phase of both intrinsic (mitochondrial) and extrinsic (death receptor) pathways of apoptosis by cleaving many key cellular proteins, such as poly (ADP ribose) polymerase (PARP), inhibitor of caspase-activated DNase (ICAD), and several others. Briefly, JURKAT cells (1×10^6 cells/well) were seeded in a 6-well plate. […] The JURKAT cells were harvested and then fixed with 70% ice-cold ethanol followed by incubation at −20° C. for 30 min. The fixed JURKAT cells were washed twice with PBS and treated with 20 μl of Caspase-3-FITC (BD Biosciences) and incubated for 60 min at room temperature in dark conditions. Cells were washed with PBS and resuspended in 0.5 ml of PBS, before analysis for Caspase-3 expression using BD FACS Callibur (San Jose, Calif., USA).

Turning to `CC[C@@]1(O)C(=O)OCc2c1cc1n(c2=O)Cc2cc3ccccc3nc2-1` [CPT, camptothecin, reference compound], the IC50 in experiment [1] (given as treatment concentration, time not stated, read-out: IC50 of CPT as stated in the methods) is 40 µM. In [2], the “cells in early apoptosis (AnnexinV+)” value is listed as 12.54% and the “cells in late apoptosis (AnnexinV+, PI+)” value came to 14.33%.

Consider `O=C1/C(=C/c2ccc(Br)cc2)CN2CC13C(c1ccc(Br)cc1)C1Cc4ccccc4CN1C31c3cccc4cccc(c34)[C@@]21O` (some centres unmarked) [compound 4], for which the IC50 in [1] (MTT, 24 h, read-out: IC50 (half maximal inhibitory concentration)) turned out to be 15.6 µM. Also, the IC50 in [1] (MTT, 48 h, read-out: IC50 (half maximal inhibitory concentration)) is 10.3 µM. The “Proliferation of the cancer cells” value in experiment [1] (JURKAT, 1-20 μM, 24 and 48 hours) is on record as “significantly inhibited in a concentration-dependent manner”. Also, the “Inhibition compared to positive control CPT (40 μM)” value in experiment [1] (compound 4 at 15 μM and 20 μM) is listed as “higher inhibition”. Moreover, the “Proliferation of the cancer cells” value in experiment [3] is listed as “significantly inhibited in a concentration-dependent manner”. Moreover, in experiment [4], the “Proliferation of the cancer cells” value is “significantly inhibited in a concentration-dependent manner”. Also, the “Proliferation of the cancer cells” value in [5] is given as “significantly inhibited in a concentration-dependent manner”. Further, in experiment [2], the “cells in early apoptosis (AnnexinV+)” value came out at 45.21% and the “cells in late apoptosis (AnnexinV+, PI+)” value worked out at 46.32%. Besides, the “number of TUNEL-positive cells compared with untreated or control cells” value in [6] is reported as “significant increase”. The “DNA fragmentation relative to CTP (control) treated cells” value in experiment [6] (CPT 40 μM) was “increased DNA fragmentation”. Besides, in experiment [7], the “percentage of cells in G0/G1 phase” value is “decreased”, the “percentage of cells in G2/M phase” value was “decreased”, the “percentage of cells in S phase compared to untreated cells” value is “significantly increased” and the “percentage of cells in sub G0/G1 phase compared to untreated cells” value is “moderately increased”. Besides, in experiment [8], the “mitochondrial membrane potential (ΔΨm) compared to control (untreated) cells” value is “Significant decrease”. Also, the “caspase-3 expression compared with CPT control treated cells” value in experiment [9] is on record as “higher caspase-3 expression”.
